# Measurements from patent US20220000117A1, “METHOD FOR CONTROLLING DISEASES IN SMALL GRAIN CEREALS, SEED OF SMALL GRAIN CEREALS, AND METHOD FOR SUPPRESSING LODGING DAMAGE IN SMALL GRAIN CEREALS” (KUMIAI CHEMICAL INDUSTRY CO., LTD., priority 2019, published 2022).
# Experiments:
# septoria leaf blotch = experiment: Test Example 10: control test of septoria leaf blotch of wheat, cup in greenhouse, inoculated, variety ARKEOS (Tables 15 to 19); assay type: in vivo, Septoria tritici
# Description: (§1) Degree of Disease Occurrence=Σ(Index×Number of Leaves of Index)/(4×Number of Investigated Leaves)×100 (1)
# Seed of wheat (variety: ARKEOS) was used, and 100 ml of suspension waters each containing the compound shown in Table 15 at an amount shown in Table 15 (synthesis was performed in accordance with a known method, a liquid dissolved in a small amount of DMSO or formulated 10% wettable powder was used) were prepared. Seed having a mass of 1 kg was mixed into the suspension water with a rate shown in Examples of Table 15, and air-dried, and then, 5 seeds were sown in a plastic cup having a diameter of 6 cm containing mixed soil of river sand and horticultural soil and managed in a greenhouse. In Comparative Examples, 20 ml of suspension water of an active ingredient, which had been adjusted to have a concentration shown in Table 15 to 19, was sprayed in a frame of 45 cm×45 cm in which a pot of wheat seedlings was placed (corresponding to 1000 L/ha) 14 days after seeding. On day 14 after seeding, a spore suspension in which conidiospores of septoria leaf blotch are suspended was sprayed and inoculated on leaves of wheat seedlings (after the sprayed liquid was dried in the case of Comparative Examples), a lesion area ratio of septoria leaf blotch in a second leaf was investigated approximately 35 days after seeding according to the criteria in Table 1, and the degree of disease occurrence was calculated by the above calculation formula (1).
# powdery mildew = experiment: Test Example 9: control test of wheat powdery mildew, cup in greenhouse, inoculated, Norin No. 61 (Tables 10 to 14); assay type: in vivo, Blumeria graminis; set-up: key to Degree of Disease Occurrence: Σ(index×leaves)/(4×leaves investigated)×100; 0 = no disease, 100 = max
# Description: as §1
# Seed of wheat (variety: Norin No. 61) was used, and 100 ml of suspension waters each containing the compound shown in Table 10 at an amount shown in […] (synthesis was performed in accordance with a known method, a solution dissolved in DMSO or formulated 10% wettable powder was used) were prepared. The seed having a mass of 1 kg of wheat was mixed into the suspension water with a chemical treated amount shown in Table 10, and air-dried, and then, 5 seeds were sown in a plastic cup having a diameter of 6 cm containing river sand and managed in a greenhouse. In Comparative Examples, 20 ml of the suspension water of an active ingredient, which had been adjusted to have a concentration shown in Table 10, was sprayed in a frame of 45 cm×45 cm in which a pot of wheat seedlings was placed (corresponding to 1000 L/ha) 14 days after seeding. On day 14 after seeding, conidiospores of powdery mildew were sifted over leaves of wheat seedlings and inoculated onto the leaves (after the sprayed liquid was dried in the case of Comparative Examples), a lesion area ratio of powdery mildew in a first leaf was investigated 21 days after seeding according to the criteria in Table 1, and the degree of disease occurrence was calculated by the above calculation formula (1).
# [1] = Table 19, Foliage Treatment, spray 50 ppm suspension water (corresponding to 50 g/ha) 14 days after seeding, untreated 45.0
# [2] = Table 19, Foliage Treatment, spray 50 ppm suspension water (corresponding to 50 g/ha) 14 days after seeding, untreated 98.0
# [3] = Table 19, Seed Treatment, 0.5 g/Seed 1 kg (corresponding to 50 g/ha), untreated 45.0
# [4] = Table 19, Seed Treatment, 0.5 g/Seed 1 kg (corresponding to 50 g/ha), untreated 98.0
# [5] = Table 12 run (different day), Foliage Treatment, spray 5 ppm (5 g/ha)
# [6] = Table 12 run (different day), Foliage Treatment, spray 10 ppm (10 g/ha)
# [7] = Table 12 run (different day), Seed Treatment 0.05 g/Seed 1 kg (5 g/ha)
# [8] = Table 12 run (different day), Seed Treatment 0.1 g/Seed 1 kg (10 g/ha)
# [9] = Table 13 run (different day), Foliage Treatment, spray 5 ppm (5 g/ha)
# [10] = Table 13 run (different day), Foliage Treatment, spray 10 ppm (10 g/ha)
# [11] = Table 13 run (different day), Foliage Treatment, spray 50 ppm (50 g/ha)
# [12] = Table 13 run (different day), Seed Treatment 0.05 g/Seed 1 kg (5 g/ha)
# [13] = Table 13 run (different day), Seed Treatment 0.1 g/Seed 1 kg (10 g/ha)
# [14] = Table 13 run (different day), Seed Treatment 0.5 g/Seed 1 kg (50 g/ha)
# [15] = Table 14, Foliage Treatment, spray 10 ppm suspension water (corresponding to 10 g/ha) 14 days after seeding, untreated 70.0
# [16] = Table 14, Foliage Treatment, spray 10 ppm suspension water (corresponding to 10 g/ha) 14 days after seeding, untreated 100.0
# [17] = Table 14, Seed Treatment, 0.1 g/Seed 1 kg (corresponding to 10 g/ha), first leaf, 21 days after seeding, untreated 70.0
# [18] = Table 14, Seed Treatment, 0.1 g/Seed 1 kg (corresponding to 10 g/ha), first leaf, 21 days after seeding, untreated 100.0
# [19] = Table 11 run (different day), Foliage Treatment, spray 50 ppm (50 g/ha)
# [20] = Table 11 run (different day), Seed Treatment 0.5 g/Seed 1 kg (50 g/ha)
# [21] = Table 18, Foliage Treatment, spray 5 ppm (5 g/ha)
# [22] = Table 18, Foliage Treatment, spray 10 ppm (10 g/ha)
# [23] = Table 18, Seed Treatment 0.05 g/Seed 1 kg (5 g/ha)
# [24] = Table 18, Seed Treatment 0.1 g/Seed 1 kg (10 g/ha)
# [25] = Table 12 run (different day), Foliage Treatment, spray 50 ppm (50 g/ha)
# [26] = Table 12 run (different day), Seed Treatment 0.5 g/Seed 1 kg (50 g/ha)
structure (smiles),measurement,setting,value
N/C(=N\O)c1snc(Cl)c1Cl [Compound (17)],Degree of Disease Occurrence,septoria leaf blotch; [1],38.3
same,Disease Leaf Rate (%),septoria leaf blotch; [2],99.7%
same,Degree of Disease Occurrence,"septoria leaf blotch; Table 19, Foliage Treatment, spray 100 ppm suspension water (corresponding to 100 g/ha) 14 days after seeding, untreated 45.0",36.7
same,Disease Leaf Rate (%),"septoria leaf blotch; Table 19, Foliage Treatment, spray 100 ppm suspension water (corresponding to 100 g/ha) 14 days after seeding, untreated 98.0",94.9%
same,Degree of Disease Occurrence,septoria leaf blotch; [3],29.4
same,Disease Leaf Rate (%),septoria leaf blotch; [4],82.5%
same,Degree of Disease Occurrence,"septoria leaf blotch; Table 19, Seed Treatment, 1 g/Seed 1 kg (corresponding to 100 g/ha), untreated 45.0",20.9
same,Disease Leaf Rate (%),"septoria leaf blotch; Table 19, Seed Treatment, 1 g/Seed 1 kg (corresponding to 100 g/ha), untreated 98.0",78.8%
same,Degree of Disease Occurrence,powdery mildew; [5],45.0
same,Disease Leaf Rate (%),powdery mildew; [5],93.3%
same,Degree of Disease Occurrence,powdery mildew; [6],43.3
same,Disease Leaf Rate (%),powdery mildew; [6],80.0%
same,Degree of Disease Occurrence,powdery mildew; [7],23.3
same,Disease Leaf Rate (%),powdery mildew; [7],66.7%
same,Degree of Disease Occurrence,powdery mildew; [8],10.4
same,Disease Leaf Rate (%),powdery mildew; [8],25.0%
same,Degree of Disease Occurrence,powdery mildew; [9],85.8
same,Disease Leaf Rate (%),powdery mildew; [9],100.0%
same,Degree of Disease Occurrence,powdery mildew; [10],62.4
same,Disease Leaf Rate (%),powdery mildew; [10],95.8%
same,Degree of Disease Occurrence,powdery mildew; [11],42.4
same,Disease Leaf Rate (%),powdery mildew; [11],90.6%
same,Degree of Disease Occurrence,powdery mildew; [12],66.7
same,Disease Leaf Rate (%),powdery mildew; [12],100.0%
same,Degree of Disease Occurrence,powdery mildew; [13],47.9
same,Disease Leaf Rate (%),powdery mildew; [13],100.0%
same,Degree of Disease Occurrence,powdery mildew; [14],33.1
same,Disease Leaf Rate (%),powdery mildew; [14],83.8%
N=C(OCc1ccccc1)c1snc(Cl)c1Cl [Compound (12)],Degree of Disease Occurrence,"septoria leaf blotch; Table 19, Foliage Treatment, spray 10 ppm suspension water (corresponding to 10 g/ha) 14 days after seeding, untreated 45.0",53.3
same,Disease Leaf Rate (%),"septoria leaf blotch; Table 19, Foliage Treatment, spray 10 ppm suspension water (corresponding to 10 g/ha) 14 days after seeding, untreated 98.0",99.3%
same,Degree of Disease Occurrence,septoria leaf blotch; [1],39.2
same,Disease Leaf Rate (%),septoria leaf blotch; [2],93.6%
same,Degree of Disease Occurrence,"septoria leaf blotch; Table 19, Seed Treatment, 0.1 g/Seed 1 kg (corresponding to 10 g/ha), untreated 45.0",26.3
same,Disease Leaf Rate (%),"septoria leaf blotch; Table 19, Seed Treatment, 0.1 g/Seed 1 kg (corresponding to 10 g/ha), untreated 98.0",75.0%
same,Degree of Disease Occurrence,septoria leaf blotch; [3],10.3
same,Disease Leaf Rate (%),septoria leaf blotch; [4],41.3%
same,Degree of Disease Occurrence,powdery mildew; [15],56.9
same,Disease Leaf Rate (%),powdery mildew; [16],94.4%
same,Degree of Disease Occurrence,"powdery mildew; Table 14, Foliage Treatment, spray 100 ppm suspension water (corresponding to 100 g/ha) 14 days after seeding, untreated 70.0",47.9
same,Disease Leaf Rate (%),"powdery mildew; Table 14, Foliage Treatment, spray 100 ppm suspension water (corresponding to 100 g/ha) 14 days after seeding, untreated 100.0",93.3%
same,Degree of Disease Occurrence,powdery mildew; [17],21.3
same,Disease Leaf Rate (%),powdery mildew; [18],75.8%
same,Degree of Disease Occurrence,"powdery mildew; Table 14, Seed Treatment, 1 g/Seed 1 kg (corresponding to 100 g/ha), first leaf, 21 days after seeding, untreated 70.0",34.1
same,Disease Leaf Rate (%),"powdery mildew; Table 14, Seed Treatment, 1 g/Seed 1 kg (corresponding to 100 g/ha), first leaf, 21 days after seeding, untreated 100.0",87.5%
COC(=N)c1snc(Cl)c1Cl [Compound (11)],Degree of Disease Occurrence,"septoria leaf blotch; Table 17, Foliage Treatment, spray 10 ppm suspension water (corresponding to 10 g/ha) 14 days after seeding, untreated 50.0",31.7
same,Disease Leaf Rate (%),"septoria leaf blotch; Table 17, Foliage Treatment, spray 10 ppm suspension water (corresponding to 10 g/ha) 14 days after seeding, untreated 100.0",93.3%
same,Degree of Disease Occurrence,"septoria leaf blotch; Table 17, Foliage Treatment, spray 50 ppm suspension water (corresponding to 50 g/ha) 14 days after seeding, untreated 50.0",35.0
same,Disease Leaf Rate (%),"septoria leaf blotch; Table 17, Foliage Treatment, spray 50 ppm suspension water (corresponding to 50 g/ha) 14 days after seeding, untreated 100.0",100.0%
same,Degree of Disease Occurrence,"septoria leaf blotch; Table 17, Foliage Treatment, spray 100 ppm suspension water (corresponding to 100 g/ha) 14 days after seeding, untreated 50.0",41.7
same,Disease Leaf Rate (%),"septoria leaf blotch; Table 17, Foliage Treatment, spray 100 ppm suspension water (corresponding to 100 g/ha) 14 days after seeding, untreated 100.0",100.0%
same,Degree of Disease Occurrence,"septoria leaf blotch; Table 17, Seed Treatment, 0.1 g/Seed 1 kg (corresponding to 10 g/ha), untreated 50.0",22.5
same,Disease Leaf Rate (%),"septoria leaf blotch; Table 17, Seed Treatment, 0.1 g/Seed 1 kg (corresponding to 10 g/ha), untreated 100.0",80.0%
same,Degree of Disease Occurrence,"septoria leaf blotch; Table 17, Seed Treatment, 0.5 g/Seed 1 kg (corresponding to 50 g/ha), untreated 50.0",18.8
same,Disease Leaf Rate (%),"septoria leaf blotch; Table 17, Seed Treatment, 0.5 g/Seed 1 kg (corresponding to 50 g/ha), untreated 100.0",63.8%
same,Degree of Disease Occurrence,"septoria leaf blotch; Table 17, Seed Treatment, 1 g/Seed 1 kg (corresponding to 100 g/ha), untreated 50.0",26.5
same,Disease Leaf Rate (%),"septoria leaf blotch; Table 17, Seed Treatment, 1 g/Seed 1 kg (corresponding to 100 g/ha), untreated 100.0",67.5%
same,Degree of Disease Occurrence,powdery mildew; [19],97.9
same,Disease Leaf Rate (%),powdery mildew; [19],100%
same,Degree of Disease Occurrence,powdery mildew; [20],79.7
same,Disease Leaf Rate (%),powdery mildew; [20],100%
same,Degree of Disease Occurrence,powdery mildew; [10],72.6
same,Disease Leaf Rate (%),powdery mildew; [10],98.4%
same,Degree of Disease Occurrence,powdery mildew; [11],67.6
same,Disease Leaf Rate (%),powdery mildew; [11],99.6%
same,Degree of Disease Occurrence,powdery mildew; [13],50.1
same,Disease Leaf Rate (%),powdery mildew; [13],95.0%
same,Degree of Disease Occurrence,powdery mildew; [14],40.8
same,Disease Leaf Rate (%),powdery mildew; [14],100.0%
N=C(N)c1snc(Cl)c1Cl [Compound (13)],Degree of Disease Occurrence,septoria leaf blotch; [21],60.0
same,Disease Leaf Rate (%),septoria leaf blotch; [21],100.0%
same,Degree of Disease Occurrence,septoria leaf blotch; [22],68.3
same,Disease Leaf Rate (%),septoria leaf blotch; [22],100.0%
same,Degree of Disease Occurrence,septoria leaf blotch; [23],28.8
same,Disease Leaf Rate (%),septoria leaf blotch; [23],95.0%
same,Degree of Disease Occurrence,septoria leaf blotch; [24],42.5
same,Disease Leaf Rate (%),septoria leaf blotch; [24],100.0%
same,Degree of Disease Occurrence,powdery mildew; [5],60.0
same,Disease Leaf Rate (%),powdery mildew; [5],100.0%
same,Degree of Disease Occurrence,powdery mildew; [6],36.7
same,Disease Leaf Rate (%),powdery mildew; [6],53.3%
same,Degree of Disease Occurrence,powdery mildew; [25],21.7
same,Disease Leaf Rate (%),powdery mildew; [25],53.3%
same,Degree of Disease Occurrence,powdery mildew; [7],19.4
same,Disease Leaf Rate (%),powdery mildew; [7],53.3%
same,Degree of Disease Occurrence,powdery mildew; [8],7.5
same,Disease Leaf Rate (%),powdery mildew; [8],20.0%
same,Degree of Disease Occurrence,powdery mildew; [26],9.7
same,Disease Leaf Rate (%),powdery mildew; [26],38.9%
same,Degree of Disease Occurrence,powdery mildew; [15],35.6
same,Disease Leaf Rate (%),powdery mildew; [16],76.7%
same,Degree of Disease Occurrence,"powdery mildew; Table 14, Foliage Treatment, spray 50 ppm suspension water (corresponding to 50 g/ha) 14 days after seeding, untreated 70.0",31.3
same,Disease Leaf Rate (%),"powdery mildew; Table 14, Foliage Treatment, spray 50 ppm suspension water (corresponding to 50 g/ha) 14 days after seeding, untreated 100.0",83.3%
same,Degree of Disease Occurrence,powdery mildew; [17],17.2
same,Disease Leaf Rate (%),powdery mildew; [18],68.8%
same,Degree of Disease Occurrence,"powdery mildew; Table 14, Seed Treatment, 0.5 g/Seed 1 kg (corresponding to 50 g/ha), first leaf, 21 days after seeding, untreated 70.0",13.9
same,Disease Leaf Rate (%),"powdery mildew; Table 14, Seed Treatment, 0.5 g/Seed 1 kg (corresponding to 50 g/ha), first leaf, 21 days after seeding, untreated 100.0",44.4%
